± gives the expanded uncertainty stated by the source.
Settings: Liquid, Pulse-echo method

COCCOCCOCCOCCOC [2,5,8,11,14-pentaoxapentadecane]
speed of sound [m/s]
Settings	293.15 K	303.15 K	313.15 K	323.15 K	333.15 K	343.15 K	353.15 K
100 kPa	1400.2 ± 1.9	1361.6 ± 1.8	1324.5 ± 1.8	1288 ± 1.8	1252 ± 1.7	1216.6 ± 1.7	1181.6 ± 1.7
10000 kPa	1439.3 ± 1.9	1402.8 ± 1.9	1367 ± 1.8	1332.1 ± 1.8	1297.9 ± 1.8	1264.2 ± 1.7	1231.2 ± 1.7
20000 kPa	1477.3 ± 1.9	1441.7 ± 1.9	1407.3 ± 1.9	1373.8 ± 1.8	1340.7 ± 1.8	1308.6 ± 1.8	1276.9 ± 1.8
30000 kPa	1512.3 ± 2	1478.2 ± 1.9	1444.9 ± 1.9	1412.5 ± 1.9	1380.8 ± 1.8	1349.9 ± 1.8	1319.8 ± 1.8
40000 kPa	1546.2 ± 2	1513 ± 2	1480.9 ± 1.9	1449.5 ± 1.9	1418.3 ± 1.9	1388.8 ± 1.9	1359.8 ± 1.8
50000 kPa	1578.2 ± 2	1546.1 ± 2	1514.8 ± 2	1484.2 ± 1.9	1454.2 ± 1.9	1425.3 ± 1.9	1397.1 ± 1.9
60000 kPa	1609.1 ± 2.1	1577.7 ± 2	1547.2 ± 2	1517.4 ± 2	1488.4 ± 1.9	1460.1 ± 1.9	1432.8 ± 1.9
70000 kPa	1638.4 ± 2.1	1607.6 ± 2.1	1578.1 ± 2	1548.8 ± 2	1520.7 ± 2	1493.1 ± 2	1466.5 ± 1.9
80000 kPa	1666.8 ± 2.1	1637 ± 2.1	1607.8 ± 2.1	1579.3 ± 2	1551.9 ± 2	1524.7 ± 2	1498.9 ± 2
90000 kPa	1694.2 ± 2.1	1664.9 ± 2.1	1636.4 ± 2.1	1608.6 ± 2.1	1581.5 ± 2	1555.3 ± 2	1529.8 ± 2
100000 kPa	1720.6 ± 2.2	1692 ± 2.1	1663.9 ± 2.1	1636.7 ± 2.1	1610.2 ± 2.1	1584.4 ± 2	1559.5 ± 2

Reference: the NIST ThermoML archive (doi:10.1021/je034036t)
